Common to all, as to format: cell-based
One assay concerns the target T1, BCR-ABL fusion protein (Homo sapiens, UniProt P00519+P11274+Q96SW2, E27K).
T1 construct: By using BCR-ABL and CRBN positive K562 cell lines; endogenous in cells; host or cells: K562
As to the kind of experiment: Immunoblotting, degradation of BCR-ABL protein in K562 cells. On the procedure:
(§1) Initially, researchers synthesized a 2C compound (FIG. 2A), which is a small molecule with the shortest joining chain (n=1). By using BCR-ABL and CRBN positive K562 cell lines, degradation of ABL and BCR-ABL proteins in the cells under the action of the compound was tested by immunoblotting. […] Then, the researchers tried to extend the joining chain (increasing the value of n).
(§2) In order to test the degradation effect of the compound 4C on c-ABL and BCR-ABL proteins in K562 cells, the researchers performed an immunoblotting experiment. […] In order to exclude the possibility that the compound 4C affected the ABL gene to generate false positive expression, the researchers used RT-qPCR in K562 cells to study the expression of the ABL gene.
The operation method of the immunoblotting experiment is as follows: […]
(§3) The medium was aspirated from the culture; the cells were washed with 1*PBS; and the cells were aspirated.
(§4) A weak RIPA lysate (100 μL) was added to lyse the cells for 40 min.
(§5) The sample was centrifuged at 13000 rpm, 4° C. for 15 min; 80 μl of supernatant was taken and added to 20 μl of loading buffer; the reaction solution was heated at 100° C. for 8 minutes; and the sample was placed on ice and cooled.
(§6) […] of sample was loaded on 10% SDS-PAGE gel. The sample was transferred to a PVDF membrane by a wet process.
(§7) A membrane was placed in 25 ml of blocking buffer and blocked at room temperature for 1 hour.
(§8) The membrane and the primary antibody (according to the appropriate dilution and diluent recommended in the product description) were placed in 10 ml of primary antibody dilution buffer, and incubated overnight at 4° C. and gently shaken from time to time.
(§9) Anti-rabbit IgG, HRP-linked Antibody (#7074, in a ratio of 1:2000) and anti-biotin, HRP-linked Antibody (#7075, in a ratio of 1:1000-1:3000) are diluted with 10 ml of blocking buffer to detect biotinylated protein standards. The membrane was incubated with the diluent, and gently shaken and incubated at room temperature for 1 hour.
(§10) A developer solution and the membrane were incubated together for 1 minute, the excess solution was discarded (the membrane remained moist) and the membrane was exposed.
(§11) Next, we tested the difference in the activity of different configurations of compound 4C in degradation of ABL and BCR-ABL proteins. […] The operation method of the immunoblotting experiment is the same as above.
A general note: In western blotting, separated proteins are transferred to a membrane and probed.

The target in a further assay is T2, ABL (Homo sapiens, UniProt P00519).
T2 construct: degradation effect of the compound 4C on c-ABL and BCR-ABL proteins in K562 cells; endogenous in cells; host or cells: K562
Kind of assay: Immunoblotting, degradation of ABL protein in K562 cells. The procedure: as §1, §2
The operation method of the immunoblotting experiment is as follows:
K562 cells after administration were incubated for 24 hours.
as §3, §4, §5, §6, §7, §8, §9, §10, §11

Another assay relates to A549. Kind of assay: Cell viability test (CellTiter-Glo), A549. The note with it: A549, non-BCR-ABL dependent tumor cell line. The procedure:
(§12) The operation method of the K562 cell viability test is as follows:
(§13) 50 μL of K562, MCF-7, HCT116 and A549 cell suspensions were added to a 96-well plate and incubated for 12 hours. 10 μL of compound was added to the well and incubated for 48 hours. Operation was performed according to a CellTiter-Glo® luminescent cell viability assay kit (Promega). Nonlinear regression analysis data in GraphPad Prism 6 was used.
In general terms: In ATP-based viability assays light output follows the ATP content of the culture.

The next assay deals with HCT116. As to the kind of experiment: Cell viability test (CellTiter-Glo), HCT116. To be noted: HCT116, non-BCR-ABL dependent tumor cell line. The procedure: as §12, §13
In another assay the test system is ABL gene. As to the kind of experiment: RT-qPCR, expression of the ABL gene in K562 cells.
Source text: as §2
The operation method of an RT-qPCR experiment is as follows:
According to the related gene information in the NCBI database, the coding sequences were selected, and primers were designed and synthesized by GenScript Biotechnology Corporation under entrustment. The sequences are as follows:
A K562 cell resuspension solution collected in a 1.5 mL centrifuge tube was centrifuged briefly. […] After mixing uniformly, the purity and concentration of the extracted RNA sample were detected using a spectrophotometer. […]
0.2 ml thin-walled PCR tubes were taken and numbered respectively. […] Water was added to each tube to 25 μl and mixed uniformly, and the mixed solutions were placed in an SLAN fluorescent quantitative PCR instrument. After pre-denaturation at 95° C. for 5 min, the mixed solutions were placed at 95° C. for 15 s→65° C. for 35 s (fluorescence detection), for 40 cycles.
In general terms: Quantitative PCR measures a nucleic acid by following its amplification.

Each structure is given as a SMILES string.

T2 sequence (P00519 whole entry): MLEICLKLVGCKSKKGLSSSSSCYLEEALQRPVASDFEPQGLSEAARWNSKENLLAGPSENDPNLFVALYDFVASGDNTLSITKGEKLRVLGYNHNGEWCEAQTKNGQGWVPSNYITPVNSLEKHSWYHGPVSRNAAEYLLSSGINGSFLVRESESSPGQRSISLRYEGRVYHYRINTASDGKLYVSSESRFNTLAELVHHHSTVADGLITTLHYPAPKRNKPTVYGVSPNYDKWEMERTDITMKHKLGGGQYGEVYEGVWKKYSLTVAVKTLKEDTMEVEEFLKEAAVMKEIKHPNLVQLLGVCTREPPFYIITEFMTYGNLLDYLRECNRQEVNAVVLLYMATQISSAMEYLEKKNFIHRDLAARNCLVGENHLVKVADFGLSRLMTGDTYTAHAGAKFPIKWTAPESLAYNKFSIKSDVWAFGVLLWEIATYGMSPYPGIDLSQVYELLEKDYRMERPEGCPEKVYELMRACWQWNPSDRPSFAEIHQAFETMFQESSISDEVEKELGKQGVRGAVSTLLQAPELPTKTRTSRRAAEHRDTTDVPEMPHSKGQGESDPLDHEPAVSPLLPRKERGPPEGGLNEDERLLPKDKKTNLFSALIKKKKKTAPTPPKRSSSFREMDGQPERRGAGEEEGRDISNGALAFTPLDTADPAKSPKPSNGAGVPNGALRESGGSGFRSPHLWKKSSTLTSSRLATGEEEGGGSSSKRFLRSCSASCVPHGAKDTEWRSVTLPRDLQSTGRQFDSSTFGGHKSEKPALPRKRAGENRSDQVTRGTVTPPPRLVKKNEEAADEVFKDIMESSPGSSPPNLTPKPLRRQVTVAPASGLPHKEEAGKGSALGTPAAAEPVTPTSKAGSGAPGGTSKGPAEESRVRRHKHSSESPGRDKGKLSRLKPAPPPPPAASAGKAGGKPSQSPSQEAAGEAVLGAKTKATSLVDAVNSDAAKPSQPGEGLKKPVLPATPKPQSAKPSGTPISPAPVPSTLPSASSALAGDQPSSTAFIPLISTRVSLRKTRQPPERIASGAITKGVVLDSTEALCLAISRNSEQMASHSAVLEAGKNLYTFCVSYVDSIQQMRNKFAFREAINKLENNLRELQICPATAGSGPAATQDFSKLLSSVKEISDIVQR

For the compound `Cc1nc(Nc2ncc(C(=O)Nc3c(C)cccc3Cl)s2)cc(N2CCN(CCCCOc3ccc(/N=N/c4ccc(C(=O)Nc5cccc6c5CN(C5CCC(=O)NC5=O)C6=O)cc4)cc3)CC2)n1` (centres unmarked) [Compound 4C, (E)-N-(2-chloro-6-methylphenyl)-2-((6-(4-(4-(4-((4-((2-(2,6-dioxopiperidin-3-yl)-1-oxoisoindolin-4-yl)carbamoyl)phenyl)diazenyl)phenoxy)butyl)piperazin-1-yl)-2-methylpyrimidin-4-yl)amino)thiazole-5-carboxamide], the “inhibition of expression of BCR-ABL and/or CRBN protein” value at BCR-ABL fusion protein (BCR-ABL and/or CRBN positive leukemia K562 cells, to varying degrees) is “can inhibit the expression”. At BCR-ABL fusion protein (K562 cells), the “activity in degrading the BCR-ABL fusion protein, compared among the PROTAC molecules” value is “best activity”. For the same compound, the “degradation of BCR-ABL fusion protein, dose-effect” value on BCR-ABL fusion protein (K562 cells, 25 nM, 24 hours of incubation) is “slightly degrade”. The “time at which BCR-ABL reached the maximum degradation” value at BCR-ABL fusion protein (K562 cells, 250 nM) worked out at 32 h. Further, the “BCR-ABL level, time-effect” value on BCR-ABL fusion protein (K562 cells, 250 nM, after 4 hours) is given as “slight decrease”; on BCR-ABL fusion protein (K562 cells, 250 nM, after 10 hours), “significantly degraded”; on BCR-ABL fusion protein (K562 cells, 250 nM, after 10 hours, listed as 4C-trans), “significantly reduced”. Further, on BCR-ABL fusion protein (K562 cells, 250 nM, after 32 hours), the “BCR-ABL fusion protein degraded, time-effect” value is on record as “more than 90%”. Further, at BCR-ABL fusion protein (K562 cells, 500 nM, 24 hours of incubation), the “BCR-ABL degraded, dose-effect” value was “more than 80%”. For the same compound, on ABL (250 nM), the “time at which ABL reached the maximum degradation” value came to 32 h. Besides, the “ABL level, time-effect” value at ABL (250 nM, 4 hours of incubation) is recorded as “significantly reduced”. Further, on ABL (250 nM, after 10 hours), the “c-ABL level, time-effect” value was “significantly degraded”. At ABL (500 nM, 24 hours of incubation), the “ABL protein degraded, dose-effect” value is recorded as “almost all”. Besides, the “effect on cell viability” value in the assay on A549 and with HCT116 was “hardly affects” each time. Besides, the “mRNA level of the ABL gene, time-effect” value in the assay on ABL gene (500 nm, 48 hours) is recorded as “did not significantly decrease”. Moreover, the “mRNA level of the ABL gene, dose-effect” value in the assay on ABL gene (different concentrations, 36 hours, compared with control group) is given as “did not change significantly”.
